Read-outs that look alike come from different tables or passages of the source.
Legend:
Assay type in all cases: cell-based, human
SK-MEL-5 = test: NCI one-dose SRB assay (Melanoma); settings: for inhibition at 10 µM: Homo sapiens, SK-MEL-5, 10 μM, read-out: Percentage growth inhibition (GI%); for Growth Percent: SK-MEL-5, 1.00E-5 Molar
Protocol: (§1) The structures of all the newly prepared pyridine-ureas 8a–n were submitted to the National Cancer Institute (NCI) Developmental Therapeutic Program. Eight compounds 8b, 8d, 8e, 8i, 8j and 8l–n were selected to be examined for their in vitro growth inhibitory activity. The anticancer assays were carried out according to the protocol of the Drug Evaluation Branch, NCI, Bethesda. The selected pyridine-ureas were tested at one dose primary anticancer assay against a panel of approximately 58 cancer lines (concentration 10^−5 M). The tested human cancer cell lines emerged from nine different cancer subtypes: leukemia, colon, melanoma, ovarian, lung, CNS, renal, breast and prostate cancers. The sulforhodamine B (SRB) protein assay was adopted to estimate the cell viability and growth. The results were reported as mean-graph of the percentage growth of the treated cells, and presented as percentage growth inhibition (GI%) caused by the test compounds (Table 2).
(§2) The anticancer assays were performed in accordance with the protocol of the Drug Evaluation Branch, NCI, Bethesda. A 48 h drug exposure protocol was used and sulforhodamine B (SRB) protein assay was applied to estimate the cell viability and growth, as reported earlier.

SK-MEL-28 = test: NCI one-dose SRB assay (Melanoma); settings: for inhibition at 10 µM: Homo sapiens, SK-MEL-28, 10 μM, read-out: Percentage growth inhibition (GI%); for Growth Percent: SK-MEL-28, 1.00E-5 Molar
Protocol: as §1, §2

UACC-257 = test: NCI one-dose SRB assay (Melanoma); settings: for inhibition at 10 µM: Homo sapiens, UACC-257, 10 μM, read-out: Percentage growth inhibition (GI%); for Growth Percent: UACC-257, 1.00E-5 Molar
Protocol: as §1, §2

MDA-MB-435 = test: NCI one-dose SRB assay (Melanoma); settings: for inhibition at 10 µM: Homo sapiens, MDA-MB-435, 10 μM, read-out: Percentage growth inhibition (GI%); for Growth Percent: MDA-MB-435, 1.00E-5 Molar
Protocol: as §1, §2

MALME-3M = test: NCI one-dose SRB assay (Melanoma); settings: for Growth Percent: 1.00E-5 Molar; for inhibition at 10 µM: Homo sapiens, read-out: Percentage growth inhibition (GI%)
Protocol: as §1, §2

M14 = test: NCI one-dose SRB assay (Melanoma); settings: for inhibition at 10 µM: Homo sapiens, M14, 10 μM, read-out: Percentage growth inhibition (GI%); for Growth Percent: M14, 1.00E-5 Molar
Protocol: as §1, §2

SK-MEL-2 = test: NCI one-dose SRB assay (Melanoma); settings: for inhibition at 10 µM: Homo sapiens, SK-MEL-2, 10 μM, read-out: Percentage growth inhibition (GI%); for Growth Percent: SK-MEL-2, 1.00E-5 Molar
Protocol: as §1, §2

UACC-62 = test: NCI one-dose SRB assay (Melanoma); settings: for inhibition at 10 µM: Homo sapiens, UACC-62, 10 μM, read-out: Percentage growth inhibition (GI%); for Growth Percent: UACC-62, 1.00E-5 Molar
Protocol: as §1, §2

LOX IMVI = test: NCI one-dose SRB assay (Melanoma); settings: for Growth Percent: 1.00E-5 Molar; for inhibition at 10 µM: Homo sapiens, read-out: Percentage growth inhibition (GI%)
Protocol: as §1, §2

SW-620 = test: NCI one-dose SRB assay (Colon Cancer); settings: for inhibition at 10 µM: Homo sapiens, SW-620, 10 μM, read-out: Percentage growth inhibition (GI%); for Growth Percent: SW-620, 1.00E-5 Molar
Protocol: as §1, §2

HCT-116 = test: NCI one-dose SRB assay (Colon Cancer); settings: for Growth Percent: HCT-116, 1.00E-5 Molar; for inhibition at 10 µM: Homo sapiens, HCT-116, 10 μM, read-out: Percentage growth inhibition (GI%)
Protocol: as §1, §2

KM12 = test: NCI one-dose SRB assay (Colon Cancer); settings: for inhibition at 10 µM: Homo sapiens, KM12, 10 μM, read-out: Percentage growth inhibition (GI%); for Growth Percent: KM12, 1.00E-5 Molar
Protocol: as §1, §2

COLO 205 = test: NCI one-dose SRB assay (Colon Cancer); settings: for Growth Percent: COLO 205, 1.00E-5 Molar; for inhibition at 10 µM: Homo sapiens, COLO 205, 10 μM, read-out: Percentage growth inhibition (GI%)
Protocol: as §1, §2

HCC-2998 = test: NCI one-dose SRB assay (Colon Cancer); settings: for Growth Percent: HCC-2998, 1.00E-5 Molar; for inhibition at 10 µM: Homo sapiens, HCC-2998, 10 μM, read-out: Percentage growth inhibition (GI%)
Protocol: as §1, §2

HT29 = test: NCI one-dose SRB assay (Colon Cancer); settings: for Growth Percent: HT29, 1.00E-5 Molar; for inhibition at 10 µM: Homo sapiens, HT-29, HT29, 10 μM, read-out: Percentage growth inhibition (GI%)
Protocol: as §1, §2

HCT-15 = test: NCI one-dose SRB assay (Colon Cancer); settings: for Growth Percent: HCT-15, 1.00E-5 Molar; for inhibition at 10 µM: Homo sapiens, HCT-15, 10 μM, read-out: Percentage growth inhibition (GI%)
Protocol: as §1, §2

UO-31 = test: NCI one-dose SRB assay (Renal Cancer); settings: for inhibition at 10 µM: Homo sapiens, UO-31, 10 μM, read-out: Percentage growth inhibition (GI%); for Growth Percent: UO-31, 1.00E-5 Molar
Protocol: as §1, §2

786-0 = test: NCI one-dose SRB assay (Renal Cancer); settings: for Growth Percent: 786-0, 1.00E-5 Molar; for inhibition at 10 µM: Homo sapiens, 786-0, 10 μM, read-out: Percentage growth inhibition (GI%)
Protocol: as §1, §2

SN12C = test: NCI one-dose SRB assay (Renal Cancer); settings: for Growth Percent: 1.00E-5 Molar; for inhibition at 10 µM: Homo sapiens, read-out: Percentage growth inhibition (GI%)
Protocol: as §1, §2

RXF 393 = test: NCI one-dose SRB assay (Renal Cancer); settings: for inhibition at 10 µM: Homo sapiens, RXF 393, 10 μM, read-out: Percentage growth inhibition (GI%); for Growth Percent: RXF 393, 1.00E-5 Molar
Protocol: as §1, §2

A498 = test: NCI one-dose SRB assay (Renal Cancer); settings: for Growth Percent: A498, 1.00E-5 Molar; for inhibition at 10 µM: Homo sapiens, A498, 10 μM, read-out: Percentage growth inhibition (GI%)
Protocol: as §1, §2

TK-10 = test: NCI one-dose SRB assay (Renal Cancer); settings: for inhibition at 10 µM: Homo sapiens, TK-10, 10 μM, read-out: Percentage growth inhibition (GI%); for Growth Percent: TK-10, 1.00E-5 Molar
Protocol: as §1, §2

[1] = test system: breast cancer MCF-7 cell line; test: In vitro anti-proliferative activity, MTT assay; settings: Homo sapiens, MCF-7, MTT
Procedure, shortened: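 Growth inhibition was read colorimetrically by MTT, run in triplicate and averaged over at least three independent experiments. The cells were maintained in DMEM supplemented with 10 μg/mL insulin, 10% heat-inactivated FBS and 1% penicillin-streptomycin.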

[2] = MCF7, 48 h, 48 h of incubation, read-out: IC50 48 h
[3] = MCF7, 72 h, 72 h of incubation, read-out: IC50 72 h

`COc1cccc(NC(=O)Nc2ccc(-c3ccc(OC)c(OC)c3)nc2C)c1` [Compound 8m, 1-(6-(3,4-Dimethoxyphenyl)-2-methylpyridin-3-yl)-3-(3-methoxyphenyl) Urea] was tested, and the inhibition at 10 µM (SK-MEL-5) was 16%, the “Growth Percent” value (SK-MEL-5) was 84.32% and the inhibition at 10 µM (SK-MEL-28) was < 10%. For the same compound, the “Growth Percent” value (SK-MEL-28) was 99.69%, the inhibition at 10 µM (UACC-257) was < 10% and the “Growth Percent” value (UACC-257) was 97.19%. The inhibition at 10 µM (MDA-MB-435) was < 10%, the “Growth Percent” value (MDA-MB-435) was 100.45% and the “Growth Percent” value (MALME-3M) was 92.61%. For the same compound, the inhibition at 10 µM (MALME-3M) was < 10%, the inhibition at 10 µM (M14) was 10% and the “Growth Percent” value (M14) was 90.93%. For the same compound, the inhibition at 10 µM (SK-MEL-2) was 13%, the “Growth Percent” value (SK-MEL-2) was 87.95% and the inhibition at 10 µM (UACC-62) was < 10%. The “Growth Percent” value (UACC-62) was 93.89%, the “Growth Percent” value (LOX IMVI) was 92.56% and the inhibition at 10 µM (LOX IMVI) was < 10%. For the same compound, the inhibition at 10 µM (SW-620) was < 10%, the “Growth Percent” value (SW-620) was 101.68% and the “Growth Percent” value (HCT-116) was 78.84%. For the same compound, the inhibition at 10 µM (HCT-116) was 22%, the inhibition at 10 µM (KM12) was < 10% and the “Growth Percent” value (KM12) was 96.43%. For the same compound, the “Growth Percent” value (COLO 205) was 119.56%, the inhibition at 10 µM (COLO 205) was < 10% and the “Growth Percent” value (HCC-2998) was 97.15%. For the same compound, the inhibition at 10 µM (HCC-2998) was < 10%, the “Growth Percent” value (HT29) was 75.95% and the inhibition at 10 µM (HT29) was 25%. The “Growth Percent” value (HCT-15) was 91.11%, the inhibition at 10 µM (HCT-15) was < 10% and the inhibition at 10 µM (UO-31) was 20%. For the same compound, the “Growth Percent” value (UO-31) was 80.45%, the “Growth Percent” value (786-0) was 92.27% and the inhibition at 10 µM (786-0) was < 10%. For the same compound, the “Growth Percent” value (SN12C) was 93.61%, the inhibition at 10 µM (SN12C) was < 10% and the inhibition at 10 µM (RXF 393) was < 10%. For the same compound, the “Growth Percent” value (RXF 393) was 108.45%, the “Growth Percent” value (A498) was 85.18% and the inhibition at 10 µM (A498) was 15%. The inhibition at 10 µM (TK-10) was < 10%, the “Growth Percent” value (TK-10) was 96.16% and the IC50 [1, 2] was 23 ± 1.91 µM. The IC50 [1, 3] was 13.1 ± 1.12 µM.

For `COc1ccc(NC(=O)Nc2ccc(-c3ccc(OC)c(OC)c3)nc2C)cc1` [Compound 8n, 1-(6-(3,4-Dimethoxyphenyl)-2-methylpyridin-3-yl)-3-(4-methoxyphenyl) Urea], the inhibition at 10 µM (SK-MEL-5) was 78%, the “Growth Percent” value (SK-MEL-5) was 22.98% and the inhibition at 10 µM (SK-MEL-28) was 14%. For the same compound, the “Growth Percent” value (SK-MEL-28) was 86.76%, the inhibition at 10 µM (UACC-257) was 45% and the “Growth Percent” value (UACC-257) was 55.47%. The inhibition at 10 µM (MDA-MB-435) was 35%, the “Growth Percent” value (MDA-MB-435) was 65.17% and the “Growth Percent” value (MALME-3M) was 44.12%. For the same compound, the inhibition at 10 µM (MALME-3M) was 56%, the inhibition at 10 µM (M14) was 28% and the “Growth Percent” value (M14) was 72.14%. For the same compound, the inhibition at 10 µM (SK-MEL-2) was 21%, the “Growth Percent” value (SK-MEL-2) was 79.55% and the inhibition at 10 µM (UACC-62) was 41%. The “Growth Percent” value (UACC-62) was 59.87%, the “Growth Percent” value (LOX IMVI) was 88.83% and the inhibition at 10 µM (LOX IMVI) was 12%. For the same compound, the inhibition at 10 µM (SW-620) was 36%, the “Growth Percent” value (SW-620) was 64.84% and the “Growth Percent” value (HCT-116) was 49.40%. For the same compound, the inhibition at 10 µM (HCT-116) was 51%, the inhibition at 10 µM (KM12) was 55% and the “Growth Percent” value (KM12) was 45.29%. The “Growth Percent” value (COLO 205) was 91.95%, the inhibition at 10 µM (COLO 205) was < 10% and the “Growth Percent” value (HCC-2998) was 83.10%. For the same compound, the inhibition at 10 µM (HCC-2998) was 17%, the “Growth Percent” value (HT29) was 68.76% and the inhibition at 10 µM (HT29) was 32%. For the same compound, the “Growth Percent” value (HCT-15) was 91.77%, the inhibition at 10 µM (HCT-15) was < 10% and the inhibition at 10 µM (UO-31) was 19%. The “Growth Percent” value (UO-31) was 81.72%, the “Growth Percent” value (786-0) was 11.07% and the inhibition at 10 µM (786-0) was 89%. For the same compound, the “Growth Percent” value (SN12C) was 64.38%, the inhibition at 10 µM (SN12C) was 36% and the inhibition at 10 µM (RXF 393) was 42%. For the same compound, the “Growth Percent” value (RXF 393) was 58.20%, the “Growth Percent” value (A498) was 71.94% and the inhibition at 10 µM (A498) was 29%. The inhibition at 10 µM (TK-10) was 40%, the “Growth Percent” value (TK-10) was 60.42% and the IC50 [1, 2] was 1.88 ± 0.12 µM. The IC50 [1, 3] was 0.8 ± 0.07 µM.
